The subject of the assay is glial cultures (astrocytes). In words: Glutamate and cell death in glial cultures exposed to hypoxia with glutamine. The assay is classed as cell-based, mouse (Swiss Webster). Particulars: for Glu: hypoxia, 2 mM Gln. Here is the method:
Measurements of glutamate and glutamine concentrations, as well as of the release of the cytoplasmic marker enzyme, lactate dehydrogenase (LDH), were made with the medium of mixed neuronal-astrocyte cultures exposed to hypoxic and control conditions, with and without the addition of 2 mM glutamine. For comparative purposes, the measurements were made in mixed cultures in which complete neuronal death was caused by a 5h exposure to 500 μM NMDA. The first glutamate measurement was made at the end of hypoxia (5h with mixed cultures, 7h with astrocytes), and the second at 19 h after the subsequent return of oxygen. If added, glutamine was present during and after hypoxia. LDH released by the experimental treatment was measured at 24 h, and is expressed as a percentage of the total cellular content (neurons in mixed cultures, and glia in glial cultures). To verify the neuronal origin of LDH and glutamate, similar experiments were performed on cultures that only contained glia.
Astrocytes were cultured from cortical cell suspensions from 1-2 day old Swiss Webster mouse pups. Mixed cultures of neurons and astrocytes were obtained by plating cortical neurons from embryonic day 15-16 mice on confluent astrocyte monolayers. Pure neuronal cultures were made from the same embryonic cortical cell suspensions; astrocyte growth was inhibited by adding cytosine arabinoside and decreasing serum in the medium. For survival, neuronal cultures were fed with glial conditioned medium. Neuronal cultures were used for experiments at 11-15 days in vitro, and mixed cultures at 13-15 days after plating the neurons.
Hypoxia was carried out at 37° C. in an anoxic chamber (<0.2% oxygen; Forma Scientific). Before each experiment, the medium was pre-equilibrated with an anoxic gas mixture containing 5% CO2, 85% N2 and 10% H2 and incubated at 37° C. […] The oxygen tension in the anoxic chamber was monitored using an oxygen electrode (Model MI-730; Microelectrodes Inc.). […]

Regarding `NC(=O)CC[C@H](N)C(=O)O` [Gln, glutamine], the cytotoxicity at 2000 µM (Mus musculus, Astrocyte, 24 h, read-out: % cell death (LDH)) lay in the range of 2 to 5%. The Glu by setting is: (7 h) 0.39 ± .09 µM; (24 h) 0.39 ± 0.07 µM.
